# Values quoted from earlier work, collected in patent US11458160B2, “Food supplements for use in the prophylaxis and treatment of migraine” (CRISTALFARMA S.R.L., priority 2017, dated 2022).
# Key:
# [1] = magnesium sulphate intravenously, same amount
# [2] = weeks 9-12; 600 mg magnesium per day orally for 12 weeks; 81 patients; p<0.05
SMILES,efficacy compared with intravenous ketorolac [1],reduction of attack frequency compared to the baseline [2]
O=S(=O)([O-])[O-].[Mg+2] [magnesium sulphate],as effective as an intravenously administered NSAID such as ketorolac,–
"O=C([O-])CC(O)(CC(=O)[O-])C(=O)[O-].O=C([O-])CC(O)(CC(=O)[O-])C(=O)[O-].[Mg+2].[Mg+2].[Mg+2] [magnesium, tri-magnesium di-citrate]",–,41.6%
